Assay results as given in patent US9863933B2, “Method for determining the repair activity of non-homologous end joining” (Soochow University, priority 2015, dated 2018).

What was measured:
Assay type in all cases: cell-based
[1] = test system: NHEJ repair activity in 293T cells; test: NHEJ repair activity by TALEN-induced HPRT mutation, 6-TG selection and MTT cell viability; conditions: for inhibition rate of NHEJ repair activity: then 30 μmol/L 6-TG 72 h
Description: The inhibiting effects of different concentrations of NU7441 on NHEJ are determined by using the TALEN technology, and the specific steps are as follows:
(1) a TALEN plasmid for HPRT gene was constructed. The specific steps comprise: a left-arm recognition sequence ATGACCTTGATTTA (SEQ ID NO:1) and a right-arm recognition sequence CCAAATCCTCAGCA (SEQ ID NO:2) of the target HPRT gene were designed according to the TALEN design principle, and the two recognition sequences were inserted into a corresponding backbone carrier according to the method indicated on the TALEN construction kit. Competent E. coli cells were transformed with the carrier, uniformly spread on a kanamycin-resistant (20 μg/ml) plate and cultured in an incubator at 37° C. for 12-16 h, then 3-5 clones were selected and inoculated in 5 ml LB culture solution (containing 20 μg/ml kanamycin), and cultured in a shaker at 250 rpm under 37° C. for 16 h, plasmids were extracted and sequenced, and the obtained sequences were compared with the designed recognition sequences, ensuring the left-arm and right-arm TALEN plasmids with correct sequences were obtained.
(2) the left-arm and right-arm TALEN plasmids were transfected into 293T cells. The specific steps comprise: 293T cells were inoculated into a culture dish of 6 cm, and 4 μg left-arm plasmids and 4 μg right-arm plasmids were transfected into the 293T cells by using Lipofectamine 3000 when cell density reached 70%.
(3) the 293T cells were treated with different concentrations of the inhibitor NU7441. […]
(§1) (5) cell viability was determined by a MTT method. The specific steps comprise: a MTT solution was added after the treatment was completed, 2 h later, the formed blue formazan particles were dissolved with DMSO, and then the light absorption value of each well was determined at OD570 nm via a microplate reader. […]

[2] = test system: NHEJ repair activity in 293T cells; test: NHEJ repair activity by CRISPR/Cas9-induced HPRT mutation, 6-TG selection and MTT cell viability (NU7441 treatment time)
Description: The time dependence of the inhibiting effect of 2.0 μmol/L NU7441 on NHEJ was determined by using the CRISPR/Cas9 technology, specific steps were as follows:
(1) a Cas9/gRNA plasmid was constructed for HPRT gene. The specific steps comprise: a target site primer of HPRT was designed according to a gRNA design principle, wherein the forward primer is […] (SEQ ID NO:3), and the reverse primer is […] (SEQ ID NO:4). The primers were annealed to form a dimer, and the gRNA-sequence primer dimer was inserted into a Cas9/gRNA plasmid according to the method indicated on the CRISPR/Cas9 construction kit. Competent E. coli cells were transformed with the plasmid, spread on an ampicillin-resistant plate. 3-5 clones were selected and cultured in a shaker, plasmids were extracted and sequenced, and the obtained sequences were compared with the designed recognition sequences, ensuring the Cas9/gRNA plasmids with correct sequences were obtained.
(2) the Cas9/gRNA plasmids were transfected into 293T cells. […]
as §1

[3] = test system: NHEJ repair activity in 293T cells; test: NHEJ repair activity by CRISPR/Cas9-induced HPRT mutation with siRNA co-transfection, 6-TG selection and MTT cell viability; conditions: CRISPR/Cas9, 3 μg siRNA co-transfected, versus negative control siRNA
Description: The inhibiting effect of DNA-PKcs siRNA on NHEJ was determined by using a CRISPR/Cas9 technology, and the specific steps comprise:
(1) a Cas9/gRNA plasmid was constructed for HPRT gene, and the specific steps are as described in the embodiment 2.
(2) the Cas9/gRNA plasmid and DNA-PKcs siRNA were co-transfected into 293T cells. The specific steps comprise: 293T cells were inoculated into a culture dish of 6 cm, and 3 μg Cas9/gRNA plasmid and 3 μg DNA-PKcs siRNA were co-transfected into the 293T cells by using Lipofectamine 3000 when cell density reached 70%, and a negative control siRNA was transfected for the negative control group. The gene sequence of DNA-PKcs siRNA was […] (SEQ ID NO:5).
(3) the cells were treated with 6-TG. The specific steps comprise: the cells were inoculated into a 96-well plate after the transfection is performed for 24 h, then the culture medium was replaced with a DMEM culture medium containing 30 μmol/L 6-TG after cell attachment, and the cells were continually cultured for 72 h.
as §1, with “(4)” for “(5)”

Compound | inhibition rate of NHEJ repair activity ([1]; 0.5 μmol/L for 4 h) | inhibition rate of NHEJ repair activity ([1]; 1.0 μmol/L for 4 h) | inhibiting effect on NHEJ repair activity ([1]; concentration increased to 2.0 μmol/L, 4 h (compared with 0.5, 1.0 μmol/L)) | inhibition rate of NHEJ repair activity ([2]; CRISPR/Cas9, 2.0 μmol/L for 1 h, then 30 μmol/L 6-TG 72 h) | inhibiting effect on NHEJ activity ([2]; CRISPR/Cas9, 2.0 μmol/L, treatment longer than 1 h (2 and 4 h)) | repair activity of NHEJ [3]
O=c1cc(N2CCOCC2)oc2c(-c3cccc4c3sc3ccccc34)cccc12 [NU7441] | about 50% | about 50% | the inhibiting effect was reduced | about 50% | reduced over time | –
DNA-PKcs siRNA: siRNA of the NHEJ repair molecule DNA-PKcs, sequence UUCUCCGAACGUGUCACGUTT (SEQ ID NO:5), synthesized by GenePharma (chemistry not given here) | – | – | – | – | – | inhibited significantly
